Measured values reported in ChEMBL document CHEMBL2203152, “Systematic in vivo screening of a series of 1-propyl-4-arylpiperidines against dopaminergic and serotonergic properties in rat brain: a scaffold-jumping approach” (J Med Chem, 2012).
The source made the active and inactive calls. The rule behind the calls is not given here.

Legend:
[1] = tested on: Rattus norvegicus; assay: Reduction in spontaneous locomotor activity in Sprague-Dawley rat at 100 umol/kg, sc measured after 15 to 60 mins relative to saline-treated control; format: functional; design: scale not given: the % may be the effect or the level left
[2] = tested on: Rattus norvegicus; assay: Decrease in 5-HIAA level in Sprague-Dawley rat striatum at 100 umol/kg, sc by HPLC analysis relative to saline-treated control; format: functional; design: scale not given: the % may be the effect or the level left
[3] = tested on: Rattus norvegicus; assay: Increase in DOPAC level in Sprague-Dawley rat striatum at 100 umol/kg, sc by HPLC analysis relative to saline-treated control; format: functional
[4] = tested on: Rattus norvegicus; assay: Increase in DOPAC level in sc dosed Sprague-Dawley rat striatum by HPLC analysis; format: functional
[5] = biological target: T1, Amine oxidase [flavin-containing] A (Rattus norvegicus, UniProt P21396); assay: Displacement of [3H]Ro 41-1049 from MAO-A in rat cerebral cortex by competition binding assay; format: tissue-based; conditions: for Ki: read-out: Ki(app)
T1 sequence (P21396 whole entry): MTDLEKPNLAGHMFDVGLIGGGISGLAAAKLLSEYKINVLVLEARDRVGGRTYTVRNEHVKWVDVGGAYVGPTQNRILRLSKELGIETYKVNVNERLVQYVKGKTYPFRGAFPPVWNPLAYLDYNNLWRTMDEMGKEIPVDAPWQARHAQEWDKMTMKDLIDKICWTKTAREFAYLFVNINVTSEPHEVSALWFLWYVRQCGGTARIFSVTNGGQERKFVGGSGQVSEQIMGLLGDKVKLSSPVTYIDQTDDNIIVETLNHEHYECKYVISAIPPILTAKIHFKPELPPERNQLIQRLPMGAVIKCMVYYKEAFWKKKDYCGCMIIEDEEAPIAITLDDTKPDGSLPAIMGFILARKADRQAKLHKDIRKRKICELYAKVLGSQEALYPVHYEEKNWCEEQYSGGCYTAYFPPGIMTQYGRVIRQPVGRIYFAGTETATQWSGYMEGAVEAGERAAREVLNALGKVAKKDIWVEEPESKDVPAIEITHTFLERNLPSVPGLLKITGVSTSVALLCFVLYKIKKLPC

[6] = species: Homo sapiens; assay: Selectivity ratio of Ki(app) for human low affinity Dopamine D2S receptor to Ki(app) for human high affinity Dopamine D2S receptor
[7] = biological target: Sodium-dependent serotonin transporter (Homo sapiens, UniProt P31645); assay: Displacement of [3H]imipramine from human SERT expressed in CHO cells by competition binding assay; format: cell-based; conditions: read-out: Ki(app)
Chain of Sodium-dependent serotonin transporter (P31645 whole entry): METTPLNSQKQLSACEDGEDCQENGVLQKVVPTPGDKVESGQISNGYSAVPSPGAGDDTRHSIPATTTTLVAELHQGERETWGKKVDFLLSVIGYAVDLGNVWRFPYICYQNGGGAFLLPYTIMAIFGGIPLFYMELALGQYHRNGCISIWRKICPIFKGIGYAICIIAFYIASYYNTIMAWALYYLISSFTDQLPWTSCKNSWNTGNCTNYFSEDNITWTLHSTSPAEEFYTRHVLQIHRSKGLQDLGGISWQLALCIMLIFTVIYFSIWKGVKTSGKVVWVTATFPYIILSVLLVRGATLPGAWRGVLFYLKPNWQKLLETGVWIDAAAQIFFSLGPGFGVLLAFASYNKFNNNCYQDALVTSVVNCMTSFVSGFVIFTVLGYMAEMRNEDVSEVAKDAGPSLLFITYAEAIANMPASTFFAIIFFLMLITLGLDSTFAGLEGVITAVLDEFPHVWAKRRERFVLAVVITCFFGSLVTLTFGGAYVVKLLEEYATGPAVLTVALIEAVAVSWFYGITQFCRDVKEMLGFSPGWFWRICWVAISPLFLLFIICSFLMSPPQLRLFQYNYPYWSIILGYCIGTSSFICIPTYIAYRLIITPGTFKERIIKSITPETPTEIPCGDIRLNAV

[8] = biological target: T2, D(2) dopamine receptor (Homo sapiens, UniProt P14416); assay: Displacement of [3H]7-OH-DPAT from human high affinity Dopamine D2S receptor by competition binding assay
T2 sequence (P14416 whole entry): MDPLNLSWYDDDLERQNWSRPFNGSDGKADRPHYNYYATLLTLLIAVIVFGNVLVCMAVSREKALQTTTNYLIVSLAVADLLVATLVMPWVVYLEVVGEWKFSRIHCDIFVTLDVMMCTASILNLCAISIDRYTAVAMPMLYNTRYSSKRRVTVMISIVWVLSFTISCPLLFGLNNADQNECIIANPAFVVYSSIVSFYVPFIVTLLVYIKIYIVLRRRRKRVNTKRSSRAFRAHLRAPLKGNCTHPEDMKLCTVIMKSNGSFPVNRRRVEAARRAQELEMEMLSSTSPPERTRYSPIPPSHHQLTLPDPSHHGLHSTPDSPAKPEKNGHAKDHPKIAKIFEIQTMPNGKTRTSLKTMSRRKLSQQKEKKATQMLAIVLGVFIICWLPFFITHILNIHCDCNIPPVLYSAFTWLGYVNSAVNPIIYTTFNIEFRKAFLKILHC

[9] = biological target: T2, D(2) dopamine receptor; assay: Displacement of [3H]methylspiperone from human low affinity Dopamine D2S receptor by competition binding assay
[10] = tested on: Rattus norvegicus; assay: Reduction in spontaneous locomotor activity in Sprague-Dawley rat at 33 umol/kg, sc measured after 15 to 60 mins relative to saline-treated control; format: functional; design: scale not given: the % may be the effect or the level left
[11] = tested on: Rattus norvegicus; assay: Decrease in 5-HIAA level in Sprague-Dawley rat striatum at 33 umol/kg, sc by HPLC analysis relative to saline-treated control; format: functional; design: scale not given: the % may be the effect or the level left
[12] = tested on: Rattus norvegicus; assay: Increase in DOPAC level in Sprague-Dawley rat striatum at 33 umol/kg, sc by HPLC analysis relative to saline-treated control; format: functional
[13] = biological target: 5-hydroxytryptamine receptor 2A (Homo sapiens, UniProt P28223); assay: Displacement of [3H]ketanserin from human 5-HT2A at 1 uM by CEREP assay
Chain of 5-hydroxytryptamine receptor 2A (P28223 whole entry): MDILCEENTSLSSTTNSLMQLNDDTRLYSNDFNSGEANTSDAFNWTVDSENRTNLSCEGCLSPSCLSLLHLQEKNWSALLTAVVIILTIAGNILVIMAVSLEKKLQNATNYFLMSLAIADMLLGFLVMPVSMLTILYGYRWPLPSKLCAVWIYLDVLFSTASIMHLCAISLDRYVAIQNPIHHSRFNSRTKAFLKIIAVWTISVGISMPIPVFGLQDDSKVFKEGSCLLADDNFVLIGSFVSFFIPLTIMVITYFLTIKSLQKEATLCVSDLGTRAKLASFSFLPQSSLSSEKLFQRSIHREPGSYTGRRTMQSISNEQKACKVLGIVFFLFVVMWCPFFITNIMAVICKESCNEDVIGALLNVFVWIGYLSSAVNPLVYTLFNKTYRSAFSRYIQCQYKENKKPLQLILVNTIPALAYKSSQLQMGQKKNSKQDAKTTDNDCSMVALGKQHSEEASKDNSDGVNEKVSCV

[14] = biological target: T3, Alpha-2A adrenergic receptor (Homo sapiens) (UniProt P08913); assay: Displacement of [3H]UK 14.304 from human adrenergic alpha2A receptor at 1 uM
T3 sequence (whole entry): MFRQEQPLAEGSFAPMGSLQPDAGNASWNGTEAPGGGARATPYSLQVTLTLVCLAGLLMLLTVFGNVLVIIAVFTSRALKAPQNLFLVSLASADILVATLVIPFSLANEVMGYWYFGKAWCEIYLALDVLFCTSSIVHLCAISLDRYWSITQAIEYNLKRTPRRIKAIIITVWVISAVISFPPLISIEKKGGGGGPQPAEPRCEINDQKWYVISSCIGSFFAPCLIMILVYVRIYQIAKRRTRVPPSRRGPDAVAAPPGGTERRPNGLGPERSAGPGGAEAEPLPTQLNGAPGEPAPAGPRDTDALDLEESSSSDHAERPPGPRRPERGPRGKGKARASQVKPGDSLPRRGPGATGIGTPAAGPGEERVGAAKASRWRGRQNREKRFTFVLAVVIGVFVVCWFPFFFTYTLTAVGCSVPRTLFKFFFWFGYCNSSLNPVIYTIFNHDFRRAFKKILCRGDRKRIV

[15] = biological target: T4, 5-hydroxytryptamine receptor 1A (Homo sapiens) (UniProt P08908); assay: Displacement of [3H]8- OH-DPAT from human 5-HT1A at 1 uM by CEREP assay
T4 sequence (whole entry): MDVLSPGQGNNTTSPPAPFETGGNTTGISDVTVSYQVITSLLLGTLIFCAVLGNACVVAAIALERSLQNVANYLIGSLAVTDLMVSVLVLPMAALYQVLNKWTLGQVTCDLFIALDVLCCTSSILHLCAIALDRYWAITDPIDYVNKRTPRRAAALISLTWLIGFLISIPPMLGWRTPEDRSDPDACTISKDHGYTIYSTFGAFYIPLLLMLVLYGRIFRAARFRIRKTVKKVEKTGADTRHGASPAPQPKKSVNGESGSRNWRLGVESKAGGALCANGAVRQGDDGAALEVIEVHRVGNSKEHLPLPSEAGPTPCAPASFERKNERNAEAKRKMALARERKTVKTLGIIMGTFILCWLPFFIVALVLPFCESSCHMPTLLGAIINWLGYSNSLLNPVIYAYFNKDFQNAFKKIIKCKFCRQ

[16] = biological target: Sodium-dependent dopamine transporter (Homo sapiens) (UniProt Q01959); assay: Displacement of [3H]BTCP from human DAT at 1 uM by CEREP assay
Chain of Sodium-dependent dopamine transporter (Homo sapiens) (Q01959 whole entry): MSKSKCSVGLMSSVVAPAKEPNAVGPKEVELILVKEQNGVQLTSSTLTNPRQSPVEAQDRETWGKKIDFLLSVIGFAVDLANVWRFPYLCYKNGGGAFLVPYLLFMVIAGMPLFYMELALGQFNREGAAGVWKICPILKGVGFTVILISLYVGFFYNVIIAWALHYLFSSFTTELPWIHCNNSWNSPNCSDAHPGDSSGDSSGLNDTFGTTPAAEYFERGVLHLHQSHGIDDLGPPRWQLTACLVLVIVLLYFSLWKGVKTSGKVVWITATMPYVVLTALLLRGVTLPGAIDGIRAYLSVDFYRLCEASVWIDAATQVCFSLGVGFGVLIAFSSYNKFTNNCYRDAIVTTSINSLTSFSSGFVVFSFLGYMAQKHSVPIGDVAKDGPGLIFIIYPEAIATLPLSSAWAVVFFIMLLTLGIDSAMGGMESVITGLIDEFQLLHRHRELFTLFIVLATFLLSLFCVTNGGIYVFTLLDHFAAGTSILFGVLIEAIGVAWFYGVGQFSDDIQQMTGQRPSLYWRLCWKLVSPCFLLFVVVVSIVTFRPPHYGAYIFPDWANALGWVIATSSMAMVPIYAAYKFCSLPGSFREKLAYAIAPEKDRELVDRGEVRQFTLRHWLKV

| Structure (SMILES) | Activity [1] [%] | Activity [2] [%] | Activity [3] [%] | ED50 [4] | Ki [5] [nM] | Ratio Ki(app) [6] | Ki [7] [nM] | Ki [8] [nM] | Ki [9] [nM] | Activity [10] [%] | Activity [11] [%] | Activity [12] [%] | inhibition [13] [%] | inhibition [14] [%] | inhibition [15] [%] | inhibition [16] [%] | IC50 [5] [nM] | IC50 [9] [nM] |
| --- | --- | --- | --- | --- | --- | --- | --- | --- | --- | --- | --- | --- | --- | --- | --- | --- | --- | --- |
| CCCN1CCC(c2cccc3ccccc23)CC1 | 62 | 76 | 218 | 103 µmol/kg | 5420 | 2.7 | 52 | 41 | 112 | – | – | – | – | – | – | – | – | – |
| CCCN1CCC(c2cn(C)c3cc(F)ccc23)CC1 | 27 | 95 | 264 | 33 µmol/kg | 4050 | 1.7 | 45 | 157 | 275 | – | – | – | – | – | – | – | – | – |
| CCCN1CCC(c2n[nH]c3ccccc23)CC1 | – | – | – | 55 µmol/kg | 7440 | 5.7 | 5640 | 187 | 1070 | 7 | 105 | 227 | – | – | – | – | – | – |
| CCCN1CCC(c2c[nH]c3cc(F)ccc23)CC1 | – | – | – | 4.1 µmol/kg | 15800 | 0.6 | 45 | 43 | 27 | 2.8 | 93 | 299 | 100 | 91 | 14 | 1 | – | – |
| CCCN1CCC(c2ccc3ccccc3c2)CC1 | 22 | 70 | 32 | – | 63 | 1.9 | 127 | 1540 | 2870 | – | – | – | 91 | 20 | 41 | 47 | – | – |
| CCCN1CCC(N2C(=O)C(=O)c3ccccc32)CC1 | 118 | 95 | 101 | inactive | – | 0.9 | 23800 | 12800 | 12200 | – | – | – | – | – | – | – | > 580000 | – |
| CCCN1CCC(c2cc3ccccc3s2)CC1 | 37 | 76 | 28 | – | 18 | 4 | 130 | 574 | 2320 | – | – | – | 95 | 21 | 23 | 67 | – | – |
| CCCN1CCC(n2ccc3ccccc32)CC1 | 92 | 87 | 227 | 126 µmol/kg | 74900 | 10 | 54 | 109 | 1140 | – | – | – | – | – | – | – | – | – |
| CCCN1CCC(c2cn(C)c3ccc(F)cc23)CC1 | – | – | – | 3 µmol/kg | 6860 | 1.7 | 58 | 19 | 32 | 9 | 87 | 275 | – | – | – | – | – | – |
| CCCN1CCC(n2c(=O)n(C)c3cc(Cl)ccc32)CC1 | 27 | 113 | 253 | 47 µmol/kg | – | 0.4 | 2240 | 5180 | 2000 | – | – | – | – | – | – | – | > 580000 | – |
| CCCN1CCC(n2cnc3ccccc32)CC1 | 20 | 98 | 111 | inactive | – | – | 122 | 10800 | – | – | – | – | – | – | – | – | > 580000 | > 580000 |
| CCCN1CCC(c2cccc(S(C)(=O)=O)c2)CC1 [PRIDOPIDINE] | – | – | – | 81 µmol/kg | – | – | – | – | – | – | – | – | – | – | – | – | – | – |
| CCCN1CCC[C@@H](c2cccc(S(C)(=O)=O)c2)C1 | 215 | 100 | 260 | 63 µmol/kg | – | – | – | – | – | – | – | – | – | – | – | – | – | – |
| CCCN1CCC(c2csc3ccccc23)CC1 | 48 | 79 | 290 | 54 µmol/kg | 14000 | 4.6 | 6.5 | 26 | 121 | – | – | – | – | – | – | – | – | – |
